The values that follow come from patent US9765037B2, “Compositions and methods for treating toxoplasmosis, cryptosporidiosis, and other apicomplexan protozoan related diseases” (University of Washington Through its Center for …, priority 2010, dated 2017).

Molecules are shown by their SMILES. Where two headings read alike, the source gives them in different places.

One experiment deals with CpCDPK1 (Cryptosporidium parvum (strain Iowa II), UniProt A3FQ16). The experiment can be described thus: biochemical. It counts as biochemical.
Sequence of CpCDPK1 (A3FQ16 1-538): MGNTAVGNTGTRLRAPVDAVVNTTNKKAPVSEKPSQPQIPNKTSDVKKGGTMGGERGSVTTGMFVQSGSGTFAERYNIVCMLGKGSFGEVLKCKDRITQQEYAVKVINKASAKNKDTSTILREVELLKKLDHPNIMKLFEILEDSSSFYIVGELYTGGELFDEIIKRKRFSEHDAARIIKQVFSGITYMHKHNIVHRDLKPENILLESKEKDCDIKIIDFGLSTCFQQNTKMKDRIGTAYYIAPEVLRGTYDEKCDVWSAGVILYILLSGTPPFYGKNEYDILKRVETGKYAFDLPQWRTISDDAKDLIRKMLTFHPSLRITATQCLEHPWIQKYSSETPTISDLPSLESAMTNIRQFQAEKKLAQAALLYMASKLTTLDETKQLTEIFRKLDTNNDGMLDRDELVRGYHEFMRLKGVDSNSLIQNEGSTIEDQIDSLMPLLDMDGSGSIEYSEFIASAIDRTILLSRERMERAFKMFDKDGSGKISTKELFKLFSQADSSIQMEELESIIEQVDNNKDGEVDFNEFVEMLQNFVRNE
In another experiment the target is TgCDPK1 (Toxoplasma gondii, UniProt Q9BJF5). It counts as biochemical.
Sequence of TgCDPK1 (Q9BJF5 1-507): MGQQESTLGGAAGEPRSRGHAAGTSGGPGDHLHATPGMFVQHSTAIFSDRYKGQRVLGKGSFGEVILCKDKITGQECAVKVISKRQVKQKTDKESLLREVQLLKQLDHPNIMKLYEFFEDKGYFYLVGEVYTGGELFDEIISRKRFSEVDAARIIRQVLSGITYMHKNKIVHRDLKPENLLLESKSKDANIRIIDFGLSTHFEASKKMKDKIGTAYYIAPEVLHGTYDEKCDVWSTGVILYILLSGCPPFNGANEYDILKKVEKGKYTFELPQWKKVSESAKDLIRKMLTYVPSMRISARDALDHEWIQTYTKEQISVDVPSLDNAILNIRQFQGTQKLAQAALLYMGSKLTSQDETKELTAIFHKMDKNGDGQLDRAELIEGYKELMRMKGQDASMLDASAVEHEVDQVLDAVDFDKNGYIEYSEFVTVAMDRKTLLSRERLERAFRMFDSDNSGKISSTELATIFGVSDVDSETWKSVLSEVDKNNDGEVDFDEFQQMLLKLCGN
[1] abbreviates: Table 8, read-out: IC50 (μM) CpCDPK1.

On to `Cc1ccc(-c2nn(C(C)C)c3ncnc(N)c23)cc1` [Compound 7f, 1-isopropyl-3-p-tolyl-1H-pyrazolo[3,4-d]pyrimidin-4-amine], for which the figures for the IC50 on CpCDPK1 (read-out: IC50 (μM) CpCDPK1) and on TgCDPK1 (read-out: IC50 (μM) TgCDPK1) were 0.087 µM and 0.013 µM, respectively.

Consider `Cc1cc(-c2nn(C(C)C)c3ncnc(N)c23)ccc1F` [Compound 7i, 3-(4-fluoro-3-methylphenyl)-1-isopropyl-1H-pyrazolo[3,4-d]pyrimidin-4-amine], for which the IC50 on CpCDPK1 (read-out: IC50 (μM) CpCDPK1) is 0.053 µM; at TgCDPK1 (read-out: IC50 (μM) TgCDPK1) it was 0.009 µM.

For `NC(=O)Cn1nc(Cc2cccc3ccccc23)c2c(N)ncnc21` [Compound 5c, 2-(4-amino-3-(naphthalen-1-ylmethyl)-1H-pyrazolo[3,4-d]pyrimidin-1-yl)acetamide], the IC50 on CpCDPK1 (setting [1]) was found to be 2.04 µM; on CpCDPK1 (read-out: CpCDPK1 IC50), 2 µM; at TgCDPK1 (read-out: IC50 (μM) TgCDPK1), 1.92 µM.

For `CC(C)n1nc(-c2cccc(Cc3ccccc3)c2)c2c(N)ncnc21` [Compound 7y, 3-(3-benzylphenyl)-1-isopropyl-1H-pyrazolo[3,4-d]pyrimidin-4-amine], the “inhibition of TgCDPK1 (in words)” value against TgCDPK1 is on record as “neither kinase is inhibited”. Further, on TgCDPK1 (read-out: IC50 (μM) TgCDPK1), the IC50 was determined as 0.322 µM.

On to `CC(C)n1nc(-c2cccc3ccccc23)c2c(N)ncnc21` [Compound 7o, 1-isopropyl-3-(naphthalen-1-yl)-1H-pyrazolo[3,4-d]pyrimidin-4-amine], for which the 50% inhibitory concentration (IC50) stood at 0.62 µM on CpCDPK1 (read-out: CpCDPK1 IC50) and 0.326 µM on TgCDPK1 (read-out: IC50 (μM) TgCDPK1).

For the compound `Nc1ncnc2c1c(Cc1cccc3ccccc13)nn2C1CCCCC1` [Compound 5f, 1-cyclohexyl-3-(naphthalen-1-ylmethyl)-1H-pyrazolo[3,4-d]pyrimidin-4-amine], the figures for the half-inhibitory concentration (IC50) at TgCDPK1 (read-out: IC50 (μM) TgCDPK1) and on TgCDPK1 (read-out: TgCDPK1 IC50) were 0.946 µM and 1 µM, respectively.

As to `CC(C)n1nc(-c2cccc(OCc3ccccc3)c2)c2c(N)ncnc21` [Compound 7aa, 3-(3-(benzyloxy)phenyl)-1-isopropyl-1H-pyrazolo[3,4-d]pyrimidin-4-amine], at TgCDPK1, the “inhibition of TgCDPK1 (in words)” value is “neither kinase is inhibited”. In addition, the IC50 on TgCDPK1 (read-out: IC50 (μM) TgCDPK1) was 1.06 µM.

Take `Nc1ncnc2c1c(Cc1cccc3ccccc13)nn2C1CCOCC1` [Compound 15, 3-(naphthalen-1-ylmethyl)-1-(tetrahydro-2H-pyran-4-yl)-1H-pyrazolo[3,4-d]pyrimidin-4-amine]: the IC50 came out at 0.265 µM on CpCDPK1 (setting [1]) and 0.149 µM at TgCDPK1 (read-out: IC50 (μM) TgCDPK1).

With `COc1cc(COc2cccc(-c3nn(C(C)C)c4ncnc(N)c34)c2)cc(OC)c1` [Compound 22, 3-(3-(3,5-dimethoxybenzyloxy)phenyl)-1-isopropyl-1H-pyrazolo[3,4-d]pyrimidin-4-amine], the half-inhibitory concentration (IC50) at CpCDPK1 (setting [1]) is > 3 µM; at TgCDPK1 (read-out: IC50 (μM) TgCDPK1) it was 1.14 µM.

`Nc1ncnc2c1c(Cc1cccc3ccccc13)nn2Cc1ccccc1` [Compound 5e, 1-benzyl-3-(naphthalen-1-ylmethyl)-1H-pyrazolo[3,4-d]pyrimidin-4-amine]: the IC50 at CpCDPK1 (Table 3, average of three assays ± (SEM), read-out: CpCDPK1 IC50) was > 3 µM; at CpCDPK1 (setting [1]), > 3 µM; on TgCDPK1 (read-out: IC50 (μM) TgCDPK1) it was 1.85 µM.

With `CC(=O)N1CCC(CCn2nc(Cc3cccc4ccccc34)c3c(N)ncnc32)CC1` [Compound 5l, 1-(4-(2-(4-amino-3-(naphthalen-1-ylmethyl)-1H-pyrazolo[3,4-d]pyrimidin-1-yl)ethyl)piperidin-1-yl)ethanone], the half-maximal inhibitory concentration (IC50) at CpCDPK1 (read-out: IC50 (μM) CpCDPK1) was determined as 0.179 µM; on TgCDPK1 (read-out: IC50 (μM) TgCDPK1), 0.104 µM.

As for `Nc1ncnc2c1c(Cc1cccc3ccccc13)nn2Cc1c[nH]cn1` [Compound 31, 1-((1H-imidazol-4-yl)methyl)-3-(naphthalen-1-ylmethyl)-1H-pyrazolo[3,4-d]pyrimidin-4-amine], the half-inhibitory concentration (IC50) came to 0.0936 µM at CpCDPK1 (setting [1]) and 0.117 µM at TgCDPK1 (read-out: IC50 (μM) TgCDPK1).

With `CC(C)n1nc(-c2cccc(Cl)c2)c2c(N)ncnc21` [Compound 7b, 3-(3-chlorophenyl)-1-isopropyl-1H-pyrazolo[3,4-d]pyrimidin-4-amine], the 50% inhibitory concentration (IC50) at CpCDPK1 (setting [1]) came out at 0.115 µM; on CpCDPK1 (read-out: CpCDPK1 IC50) it was 0.12 µM; on TgCDPK1 (read-out: IC50 (μM) TgCDPK1) it was 0.02 µM.

For the compound `C#CCn1nc(Cc2cccc3ccccc23)c2c(N)ncnc21` [Compound 5b, 3-(naphthalen-1-ylmethyl)-1-(prop-2-ynyl)-1H-pyrazolo[3,4-d]pyrimidin-4-amine], the concentration for half-maximal inhibition (IC50) on CpCDPK1 (read-out: CpCDPK1 IC50) turned out to be 0.13 µM; on TgCDPK1 (read-out: IC50 (μM) TgCDPK1), 0.086 µM.

`CC(C)n1nc(-c2ccc3c(c2)CCCO3)c2c(N)ncnc21` [Compound 7w, 3-(chroman-6-yl)-1-isopropyl-1H-pyrazolo[3,4-d]pyrimidin-4-amine]: the IC50 is 0.11 µM at CpCDPK1 (read-out: CpCDPK1 IC50) and 0.017 µM at TgCDPK1 (read-out: IC50 (μM) TgCDPK1).

For the compound `CC(=O)N1CCC(Cn2nc(Cc3cccc4ccccc34)c3c(N)ncnc32)CC1` [Compound 5k, 1-(4-((4-amino-3-(naphthalen-1-ylmethyl)-1H-pyrazolo[3,4-d]pyrimidin-1-yl)methyl)piperidin-1-yl)ethanone], the half-inhibitory concentration (IC50) turned out to be 0.36 µM on CpCDPK1 (read-out: IC50 (μM) CpCDPK1) and 0.208 µM on TgCDPK1 (read-out: IC50 (μM) TgCDPK1).

For the compound `CC(C)n1nc(-c2ccnc(Cl)c2)c2c(N)ncnc21` [Compound 19, 3-(2-chloropyridin-4-yl)-1-isopropyl-1H-pyrazolo[3,4-d]pyrimidin-4-amine], the 50% inhibitory concentration (IC50) at CpCDPK1 (setting [1]) is 0.37 µM; on TgCDPK1 (read-out: IC50 (μM) TgCDPK1), 0.0638 µM.

As for `CC(C)n1nc(-c2cccc3c2sc2ccccc23)c2c(N)ncnc21` [Compound 7x, 3-(dibenzo[b,d]thiophen-4-yl)-1-isopropyl-1H-pyrazolo[3,4-d]pyrimidin-4-amine], the IC50 is > 3 µM at CpCDPK1 (Table 4, average of three assays ± (SEM), read-out: CpCDPK1 IC50); > 3 µM on CpCDPK1 (setting [1]); > 3 µM on TgCDPK1 (read-out: IC50 (μM) TgCDPK1); > 3 µM on TgCDPK1 (read-out: TgCDPK1 IC50).

On to `CC(C)n1nc(-c2cccc(OCc3ccccc3Cl)c2)c2c(N)ncnc21` [Compound 21, 3-(3-(2-chlorobenzyloxy)phenyl)-1-isopropyl-1H-pyrazolo[3,4-d]pyrimidin-4-amine], for which the concentration for half-maximal inhibition (IC50) at CpCDPK1 (setting [1]) and at TgCDPK1 (read-out: IC50 (μM) TgCDPK1) was > 3 µM throughout.

Consider `Cc1ccc(-c2nn(C(C)C)c3ncnc(N)c23)cc1C` [Compound 7h, 3-(3,4-dimethylphenyl)-1-isopropyl-1H-pyrazolo[3,4-d]pyrimidin-4-amine], for which the IC50 at CpCDPK1 (read-out: CpCDPK1 IC50) is 0.022 µM; at TgCDPK1 (read-out: IC50 (μM) TgCDPK1) it was 0.009 µM.

`CC(C)n1nc(-c2cncnc2)c2c(N)ncnc21` [Compound 18, 1-isopropyl-3-(pyrimidin-5-yl)-1H-pyrazolo[3,4-d]pyrimidin-4-amine]: the IC50 at CpCDPK1 (setting [1]) and at TgCDPK1 (read-out: IC50 (μM) TgCDPK1) was > 3 µM throughout.

As to `CC(C)n1nc(-c2cccc(-c3ccccc3)c2)c2c(N)ncnc21` [Compound 7z, 3-(biphenyl-3-yl)-1-isopropyl-1H-pyrazolo[3,4-d]pyrimidin-4-amine], the “inhibition of TgCDPK1 (in words)” value against TgCDPK1 is given as “neither kinase is inhibited”. Moreover, the half-inhibitory concentration (IC50) at TgCDPK1 (read-out: IC50 (μM) TgCDPK1) is 2.23 µM.

For the compound `Nc1ncnc2c1c(Cc1cccc3ccccc13)nn2C1CCCC1` [Compound 13, 1-cyclopentyl-3-(naphthalen-1-ylmethyl)-1H-pyrazolo[3,4-d]pyrimidin-4-amine], the IC50 at CpCDPK1 (setting [1]) was found to be 0.894 µM; on TgCDPK1 (read-out: IC50 (μM) TgCDPK1), 0.553 µM.

Take `CC(=O)N1CCC(n2nc(Cc3cccc4ccccc34)c3c(N)ncnc32)CC1` [Compound 5j, 1-(4-(4-amino-3-(naphthalen-1-ylmethyl)-1H-pyrazolo[3,4-d]pyrimidin-1-yl)piperidin-1-yl)ethanone]: the half-maximal inhibitory concentration (IC50) on CpCDPK1 (setting [1]) was found to be 0.103 µM; at CpCDPK1 (read-out: CpCDPK1 IC50) it was 0.1 µM; at TgCDPK1 (read-out: IC50 (μM) TgCDPK1) it was 0.091 µM.

For `CS(=O)(=O)N1CCC(Cn2nc(Cc3cccc4ccccc34)c3c(N)ncnc32)CC1` [Compound 5q, 1-((1-(methylsulfonyl)piperidin-4-yl)methyl)-3-(naphthalen-1-ylmethyl)-1H-pyrazolo[3,4-d]pyrimidin-4-amine], the concentration for half-maximal inhibition (IC50) at CpCDPK1 (setting [1]) turned out to be 0.691 µM; at CpCDPK1 (read-out: CpCDPK1 IC50) it was 0.7 µM; on TgCDPK1 (read-out: IC50 (μM) TgCDPK1), 0.563 µM.

Consider `CC(C)n1nc(-c2cccnc2)c2c(N)ncnc21` [Compound 16, 1-isopropyl-3-(pyridin-3-yl)-1H-pyrazolo[3,4-d]pyrimidin-4-amine], for which the IC50 on CpCDPK1 (setting [1]) was > 3 µM; at TgCDPK1 (read-out: IC50 (μM) TgCDPK1) it was 0.961 µM.

In the case of `CS(=O)(=O)N1CCC(CCn2nc(Cc3cccc4ccccc34)c3c(N)ncnc32)CC1` [Compound 5r, 1-(2-(1-(methylsulfonyl)piperidin-4-yl)ethyl)-3-(naphthalen-1-ylmethyl)-1H-pyrazolo[3,4-d]pyrimidin-4-amine], the values for the IC50 on CpCDPK1 (setting [1]), at CpCDPK1 (read-out: CpCDPK1 IC50) and on TgCDPK1 (read-out: IC50 (μM) TgCDPK1) were 0.194 µM, 0.2 µM and 0.117 µM, respectively.

For `CC(C)c1ccc(-c2nn(C(C)C)c3ncnc(N)c23)cc1` [Compound 7d, 1-isopropyl-3-(4-isopropylphenyl)-1H-pyrazolo[3,4-d]pyrimidin-4-amine], the 50% inhibitory concentration (IC50) was 0.213 µM on CpCDPK1 (setting [1]), 0.21 µM at CpCDPK1 (read-out: CpCDPK1 IC50) and 0.048 µM at TgCDPK1 (read-out: IC50 (μM) TgCDPK1).

Turning to `Cn1nc(Cc2cccc3ccccc23)c2c(N)ncnc21` [Compound 5a, 1-methyl-3-(naphthalen-1-ylmethyl)-1H-pyrazolo[3,4-d]pyrimidin-4-amine], the IC50 at CpCDPK1 (read-out: IC50 (μM) CpCDPK1) amounted to 0.413 µM; on TgCDPK1 (read-out: IC50 (μM) TgCDPK1), 0.458 µM.

For `COc1cc2ccccc2cc1-c1nn(C(C)C)c2ncnc(N)c12` [Compound 7s, 1-isopropyl-3-(3-methoxynaphthalen-2-yl)-1H-pyrazolo[3,4-d]pyrimidin-4-amine], the half-maximal inhibitory concentration (IC50) stood at 0.591 µM on CpCDPK1 (setting [1]), 0.6 µM at CpCDPK1 (read-out: CpCDPK1 IC50), 0.863 µM at TgCDPK1 (read-out: IC50 (μM) TgCDPK1) and 0.9 µM on TgCDPK1 (read-out: TgCDPK1 IC50).

As for `COc1ccc(-c2nn(C(C)C)c3ncnc(N)c23)cc1OC(C)C` [Compound 23, 3-(3-isopropoxy-4-methoxyphenyl)-1-isopropyl-1H-pyrazolo[3,4-d]pyrimidin-4-amine], the half-maximal inhibitory concentration (IC50) on CpCDPK1 (setting [1]) and on TgCDPK1 (read-out: IC50 (μM) TgCDPK1) was > 3 µM throughout.

As for `CC(C)n1nc(Cc2ccc3ccccc3c2)c2c(N)ncnc21` [Compound 14, 1-isopropyl-3-(naphthalen-2-ylmethyl)-1H-pyrazolo[3,4-d]pyrimidin-4-amine], the figures for the IC50 on CpCDPK1 (setting [1]) and on TgCDPK1 (read-out: IC50 (μM) TgCDPK1) were 0.953 µM and 0.627 µM, respectively.
